Measurements published in patent US20200291018A1, “TAM KINASE INHIBITORS” (SYROS PHARMACEUTICALS, INC., priority 2017, published 2020).

What was measured:
FLT3 = target: T1, FLT3 (Homo sapiens, UniProt P36888); assay: TR-FRET kinase activity assay, FLT3; type: biochemical; settings: ATP at Km, 60 minutes
T1 sequence (P36888 27-993): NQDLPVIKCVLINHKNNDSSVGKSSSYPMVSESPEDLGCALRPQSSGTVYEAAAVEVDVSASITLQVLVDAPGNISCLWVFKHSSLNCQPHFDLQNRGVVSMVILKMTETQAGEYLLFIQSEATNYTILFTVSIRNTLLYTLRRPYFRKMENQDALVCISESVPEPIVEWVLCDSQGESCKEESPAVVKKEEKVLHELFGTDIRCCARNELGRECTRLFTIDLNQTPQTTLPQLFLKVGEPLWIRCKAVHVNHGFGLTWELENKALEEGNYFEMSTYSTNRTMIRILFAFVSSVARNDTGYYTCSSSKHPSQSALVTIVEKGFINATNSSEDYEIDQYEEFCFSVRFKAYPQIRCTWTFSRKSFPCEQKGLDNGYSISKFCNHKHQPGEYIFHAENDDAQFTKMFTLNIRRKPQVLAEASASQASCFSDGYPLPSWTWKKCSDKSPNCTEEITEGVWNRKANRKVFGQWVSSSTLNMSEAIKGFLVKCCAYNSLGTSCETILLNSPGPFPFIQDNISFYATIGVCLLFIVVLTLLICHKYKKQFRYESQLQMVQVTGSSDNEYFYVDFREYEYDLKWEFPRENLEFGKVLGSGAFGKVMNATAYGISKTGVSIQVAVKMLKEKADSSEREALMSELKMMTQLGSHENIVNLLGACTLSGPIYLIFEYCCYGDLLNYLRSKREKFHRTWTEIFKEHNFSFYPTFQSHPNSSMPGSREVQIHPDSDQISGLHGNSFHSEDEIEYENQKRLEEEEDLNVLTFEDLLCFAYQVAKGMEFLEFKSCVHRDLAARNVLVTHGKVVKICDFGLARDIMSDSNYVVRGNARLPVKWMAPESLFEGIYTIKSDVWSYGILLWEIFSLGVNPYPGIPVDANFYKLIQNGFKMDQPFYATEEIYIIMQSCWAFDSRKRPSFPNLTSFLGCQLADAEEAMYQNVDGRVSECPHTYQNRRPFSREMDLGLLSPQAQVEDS
How it was run: (§1)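 Enzyme, fluorescent-labeled peptide substrate and compound were mixed, then ATP was added at each enzyme's Km. Buffer was 50 mM HEPES pH 7.5, 10 mM MgCl2, 1 mM EGTA, 0.01% Brij 35, 1 mM DTT at RT. After 60 min, EDTA quench and 30 min with Eu-anti-phosphotyrosine-site antibody; TR-FRET read gave IC50.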

MERTK = target: T2, MERTK (Homo sapiens, UniProt Q12866); assay: TR-FRET kinase activity assay, MERTK; type: biochemical; settings: for IC50: TR-FRET activity assay, ATP at Km, 60 minutes, read-out: Mer IC50; for Mer/Flt3 ratio (FLT3 IC50/Mer IC50): ratio calculated as FLT3 IC50/Mer IC50
T2 sequence (Q12866 21-999): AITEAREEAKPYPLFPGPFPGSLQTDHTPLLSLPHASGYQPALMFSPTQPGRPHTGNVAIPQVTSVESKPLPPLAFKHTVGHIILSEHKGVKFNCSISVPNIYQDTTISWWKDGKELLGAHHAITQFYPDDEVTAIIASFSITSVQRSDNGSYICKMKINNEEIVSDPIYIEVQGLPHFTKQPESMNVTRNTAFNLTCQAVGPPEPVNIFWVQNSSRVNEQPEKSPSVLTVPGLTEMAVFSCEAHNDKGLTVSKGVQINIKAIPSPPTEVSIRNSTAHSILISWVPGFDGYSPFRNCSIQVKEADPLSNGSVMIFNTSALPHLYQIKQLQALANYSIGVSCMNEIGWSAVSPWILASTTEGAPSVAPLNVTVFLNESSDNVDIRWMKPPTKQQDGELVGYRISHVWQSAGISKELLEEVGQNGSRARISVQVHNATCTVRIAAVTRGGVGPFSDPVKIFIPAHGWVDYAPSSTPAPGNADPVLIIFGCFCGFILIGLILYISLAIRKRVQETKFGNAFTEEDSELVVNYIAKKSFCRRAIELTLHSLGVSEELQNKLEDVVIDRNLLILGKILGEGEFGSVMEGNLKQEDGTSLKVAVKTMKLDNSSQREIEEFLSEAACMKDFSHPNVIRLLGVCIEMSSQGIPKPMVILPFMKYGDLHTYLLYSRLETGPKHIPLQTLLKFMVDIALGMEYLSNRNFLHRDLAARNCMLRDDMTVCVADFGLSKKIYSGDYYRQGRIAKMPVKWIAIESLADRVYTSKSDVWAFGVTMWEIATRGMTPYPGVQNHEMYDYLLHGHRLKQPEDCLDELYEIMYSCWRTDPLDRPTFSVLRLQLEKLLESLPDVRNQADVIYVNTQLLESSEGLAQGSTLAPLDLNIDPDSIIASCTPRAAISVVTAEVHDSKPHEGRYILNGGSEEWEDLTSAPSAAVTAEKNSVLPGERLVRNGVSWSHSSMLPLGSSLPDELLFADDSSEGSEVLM
How it was run: as §1

| IC50 (FLT3) [µM] | IC50 (MERTK) [µM] | Mer/Flt3 ratio (FLT3 IC50/Mer IC50) (MERTK) | Structure (SMILES) |
| --- | --- | --- | --- |
| 1 to 10 | ≤ 0.1 | +++ (a ratio of >100) | COC[C@H](C)Nc1ncc2c(OC3CCOCC3)ncc(-c3ccc(CO)cc3)c2n1 [Compound 335] |
| 0.1 to 1 | ≤ 0.1 | ++ (a ratio of between 10 and 100) | O[C@H]1CC[C@H](c2cnc(OC3CCOCC3)c3cnc(N[C@H]4CCC(F)(F)C4)nc32)CC1 [Compound 336] |
| 1 to 10 | ≤ 0.1 | +++ (a ratio of >100) | COC[C@H](C)Nc1ncc2c(OC3CCOCC3)ncc(-c3ccc(N)nc3)c2n1 [Compound 337] |
| 1 to 10 | ≤ 0.1 | +++ (a ratio of >100) | C[C@H](CC(F)(F)F)Nc1ncc2c(OC3CCOCC3)ncc([C@H]3CC[C@H](O)CC3)c2n1 [Compound 338] |
| 1 to 10 | ≤ 0.1 | +++ (a ratio of >100) | CCC1(Nc2ncc3c(OC4CCOCC4)ncc([C@H]4CC[C@H](O)CC4)c3n2)CC1 [Compound 339] |
| 1 to 10 | ≤ 0.1 | +++ (a ratio of >100) | CNC(=O)N[C@H]1CC[C@H](c2cnc(OC3CCOCC3)c3cnc(N[C@@H](C)COC)nc32)CC1 [Compound 340] |
| 1 to 10 | ≤ 0.1 | +++ (a ratio of >100) | CNS(=O)(=O)N1CCC(c2cnc(OC3CCOCC3)c3cnc(N[C@@H](C)COC)nc23)CC1 [Compound 341] |
| 1 to 10 | 1 to 10 | + (a ratio of >2.0 and <10) | COC[C@H](C)Nc1ncc2c(OC3CCOCC3)ncc(-c3ccnnc3)c2n1 [Compound 342] |
| 1 to 10 | ≤ 0.1 | +++ (a ratio of >100) | COC[C@H](C)Nc1ncc2c(OC3CCN(c4ncccn4)CC3)ncc([C@H]3CC[C@H](O)CC3)c2n1 [Compound 344] |
| 1 to 10 | 0.1 to 1 | ++ (a ratio of between 10 and 100) | CNC(=O)N1CCC(c2cnc(OC3CCOCC3)c3cnc(N[C@@H](C)COC)nc23)CC1 [Compound 345] |
| 1 to 10 | 0.1 to 1 | + (a ratio of >2.0 and <10) | COC[C@H](C)Nc1ncc2c(OC3CCOCC3)ncc(C3CCCCN3)c2n1 (stereo partly drawn) [Compound 346] |
| 0.1 to 1 | 0.1 to 1 | + (a ratio of >2.0 and <10) | COC[C@H](C)Nc1ncc2c(OC3CCOCC3)ncc(-c3cn[nH]c3)c2n1 [Compound 347] |
| 1 to 10 | ≤ 0.1 | +++ (a ratio of >100) | COC[C@H](C)Nc1ncc2c(C3CC3)ncc([C@H]3CC[C@H](O)CC3)c2n1 [Compound 349] |
| 1 to 10 | 0.1 to 1 | ++ (a ratio of between 10 and 100) | COC[C@H](C)Nc1ncc2c(OC3CCOCC3)ncc(C3CCCCN3C)c2n1 (stereo partly drawn) [Compound 350] |
| 1 to 10 | ≤ 0.1 | +++ (a ratio of >100) | COC[C@@H](C)Nc1ncc2c(OC3CC(O)C3)ncc([C@H]3CC[C@H](O)CC3)c2n1 (stereo partly drawn) [Compound 351] |
| 1 to 10 | ≤ 0.1 | +++ (a ratio of >100) | C[C@@H](CC(F)(F)F)Nc1ncc2c(OC3CCN(C)CC3)ncc([C@H]3CC[C@H](O)CC3)c2n1 [Compound 352] |
| 1 to 10 | 1 to 10 | + (a ratio of >2.0 and <10) | O=C(O)[C@H]1CC[C@@H](Nc2ncc3c(OC4CCOCC4)ncc([C@H]4CC[C@H](O)CC4)c3n2)CC1 [Compound 353] |
| 1 to 10 | ≤ 0.1 | +++ (a ratio of >100) | COC[C@H](C)Nc1ncc2c(O[C@@H]3CCOC3)ncc([C@H]3CC[C@H](O)CC3)c2n1 [Compound 354] |

| Structure (SMILES) | IC50 (FLT3) [µM] | IC50 (MERTK) [µM] | Mer/Flt3 ratio (FLT3 IC50/Mer IC50) (MERTK) |
| --- | --- | --- | --- |
| COC[C@H](C)Nc1ncc2c(OC3C[C@H]4CC[C@@H](C3)N4C)ncc([C@H]3CC[C@H](O)CC3)c2n1 (stereo partly drawn) [Compound 343] | 1 to 10 | ≤ 0.1 | +++ (a ratio of >100) |
